In PubChem BioAssay AID2060894 (Molecular Pharmacology Branch, DTP, NCI, 2025):

Test system: K12877-001-R-J1-PDC complex spheroid viability
Experiment: Anticancer human tumor K12877-001-R-J1-PDC patient-derived lung adenocarcinoma cell line growth inhibition [RAS]
Conditions: for IC50: curve of first compound; for viability, T/C: stronger effect = lower value; active = viability on the fitted dose curve at most 10% of control; inactive = the rest
Outline: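 Tumour cells grown as complex spheroids with HUVEC endothelial cells and mesenchymal stem cells, treated with RAS pathway inhibitor combinations. Each agent spans half-log steps from near clinical Cmax, or 10 microM where Cmax is unknown.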

[1] = second compound 0.000949 µM, first compound 0.0316 µM
[2] = second compound 0.000949 µM, first compound 0.1 µM
[3] = second compound 0.000949 µM, first compound 0.316 µM
[4] = second compound 0.000949 µM, first compound 1 µM
[5] = second compound 0.003 µM, first compound 0.0316 µM
[6] = second compound 0.003 µM, first compound 0.1 µM
[7] = second compound 0.003 µM, first compound 0.316 µM
[8] = second compound 0.003 µM, first compound 1 µM
[9] = second compound 0.00949 µM, first compound 0.0316 µM
[10] = second compound 0.00949 µM, first compound 0.1 µM
[11] = second compound 0.00949 µM, first compound 0.316 µM
[12] = second compound 0.00949 µM, first compound 1 µM
[13] = second compound 0.03 µM, first compound 0.0316 µM
[14] = second compound 0.03 µM, first compound 0.1 µM
[15] = second compound 0.03 µM, first compound 0.316 µM
[16] = second compound 0.03 µM, first compound 1 µM
[17] = second compound 0.0949 µM, first compound 0.0316 µM
[18] = second compound 0.0949 µM, first compound 0.1 µM
[19] = second compound 0.0949 µM, first compound 0.316 µM
[20] = second compound 0.0949 µM, first compound 1 µM
[21] = second compound 0.3 µM, first compound 0.0316 µM
[22] = second compound 0.3 µM, first compound 0.1 µM
[23] = second compound 0.3 µM, first compound 0.316 µM
[24] = second compound 0.3 µM, first compound 1 µM
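Also: spheroids exposed to agents for one week before readout.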
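For viability, T/C in this document: tumour cells co-cultured with HUVEC and mesenchymal stem cells in spheroids.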

CC(Nc1ccc2c(c1)OCCn1cc(N3C(=O)OCC3C(F)F)nc1-2)C(N)=O (centres undefined) + CCn1c(-c2cc(N3CCN(C)CC3)cnc2C(C)OC)c2c3cc(ccc31)-c1csc(n1)CC(NC(=O)C1CC1C)C(=O)N1CCCC(N1)C(=O)OCC(C)(C)C2
inactive: viability, T/C [1] 80.9% | viability, T/C [2] 81.2% | viability, T/C [3] 81.5% | viability, T/C [4] 72.4% | viability, T/C (second compound 0.000949 µM, first compound 3.16 µM) 62.2% | viability, T/C (second compound 0.000949 µM, first compound 10 µM) 56% | viability, T/C [5] 71.6% | viability, T/C [6] 68.2% | viability, T/C [7] 63.4% | viability, T/C [8] 68.3% | viability, T/C (second compound 0.003 µM, first compound 3.16 µM) 62.9% | viability, T/C (second compound 0.003 µM, first compound 10 µM) 45.5% | viability, T/C [9] 72.7% | viability, T/C [10] 68.9% | viability, T/C [11] 70.6% | viability, T/C [12] 69.5% | viability, T/C (second compound 0.00949 µM, first compound 3.16 µM) 59.1% | viability, T/C (second compound 0.00949 µM, first compound 10 µM) 29.9% | viability, T/C [13] 94.3% | viability, T/C [14] 82.6% | viability, T/C [15] 64.1% | viability, T/C [16] 52.6% | viability, T/C (second compound 0.03 µM, first compound 3.16 µM) 42.7% | viability, T/C (second compound 0.03 µM, first compound 10 µM) 20% | viability, T/C [17] 80.3% | viability, T/C [18] 61.2% | viability, T/C [19] 43.8% | viability, T/C [20] 35.8% | viability, T/C (second compound 0.0949 µM, first compound 3.16 µM) 23.7% | viability, T/C (second compound 0.0949 µM, first compound 10 µM) 12% | viability, T/C [21] 65.9% | viability, T/C [22] 40.2% | viability, T/C [23] 32.2% | viability, T/C [24] 30.3% | viability, T/C (second compound 0.3 µM, first compound 3.16 µM) 19.1% | viability, T/C (second compound 0.3 µM, first compound 10 µM) 8.63%
4590 nM: IC50 (second compound 0.00949 µM)
249 nM: IC50 (second compound 0.0949 µM)
77.5 nM: IC50 (second compound 0.3 µM)
1250 nM: IC50 (second compound 0.03 µM)
> 10000 nM: IC50 (second compound 0.000949 µM)
7420 nM: IC50 (second compound 0.003 µM)

O=C(c1ccc(F)c(F)c1Nc1ccc(I)cc1F)N1CC(O)([C@@H]2CCCCN2)C1 + CCn1c(-c2cc(N3CCN(C)CC3)cnc2C(C)OC)c2c3cc(ccc31)-c1csc(n1)CC(NC(=O)C1CC1C)C(=O)N1CCCC(N1)C(=O)OCC(C)(C)C2
inactive: viability, T/C (second compound 0.000949 µM, first compound 0.00316 µM) 79.6% | viability, T/C (second compound 0.000949 µM, first compound 0.01 µM) 71.2% | viability, T/C [1] 66% | viability, T/C [2] 57.9% | viability, T/C [3] 71.4% | viability, T/C [4] 56% | viability, T/C (second compound 0.003 µM, first compound 0.00316 µM) 71.4% | viability, T/C (second compound 0.003 µM, first compound 0.01 µM) 66.6% | viability, T/C [5] 68.1% | viability, T/C [6] 79% | viability, T/C [7] 82.6% | viability, T/C [8] 60.5% | viability, T/C (second compound 0.00949 µM, first compound 0.00316 µM) 71.3% | viability, T/C (second compound 0.00949 µM, first compound 0.01 µM) 65.8% | viability, T/C [9] 82% | viability, T/C [10] 91.3% | viability, T/C [11] 80.7% | viability, T/C [12] 53.5% | viability, T/C (second compound 0.03 µM, first compound 0.00316 µM) 110% | viability, T/C (second compound 0.03 µM, first compound 0.01 µM) 105% | viability, T/C [13] 98.9% | viability, T/C [14] 72.6% | viability, T/C [15] 59.4% | viability, T/C [16] 40% | viability, T/C (second compound 0.0949 µM, first compound 0.00316 µM) 92.7% | viability, T/C (second compound 0.0949 µM, first compound 0.01 µM) 90.4% | viability, T/C [17] 77.8% | viability, T/C [18] 50.3% | viability, T/C [19] 29% | viability, T/C [20] 25.6% | viability, T/C (second compound 0.3 µM, first compound 0.00316 µM) 80.2% | viability, T/C (second compound 0.3 µM, first compound 0.01 µM) 74.9% | viability, T/C [21] 54.8% | viability, T/C [22] 44.8% | viability, T/C [23] 29.2% | viability, T/C [24] 20.3%
> 1000 nM: IC50 (second compound 0.000949 µM) | IC50 (second compound 0.003 µM) | IC50 (second compound 0.00949 µM)
508 nM: IC50 (second compound 0.03 µM)
98.8 nM: IC50 (second compound 0.0949 µM)
58.5 nM: IC50 (second compound 0.3 µM)
